ChEMBL document CHEMBL5500384, “New synergistic benzoquinone scaffolds as inhibitors of mycobacterial cytochrome bc1 complex to treat multi-drug resistant tuberculosis” (Eur J Med Chem, 2024)

Test system: Mycobacterium tuberculosis
Assay: Antitubercular activity against Mycobacterium tuberculosis H37Rv incubated for 5 days by microtiter plate method
Format: functional
Settings: 120 h, time 5 day

Row | Compound | MIC
1 | O=C1C(Cl)=C(/N=C/c2ccc(Cl)cc2)C(=O)c2ccccc21 | 6.25 µg/mL
2 | CO[C@H]1/C=C/O[C@@]2(C)Oc3c(C)c(O)c4c(O)c(c(/C=N/N5CCN(C)CC5)c(O)c4c3C2=O)NC(=O)/C(C)=C\C=C\[C@H](C)[C@H](O)[C@@H](C)[C@@H](O)[C@@H](C)[C@H](OC(C)=O)[C@@H]1C [RIFAMPIN] | 0.3 µM
3 | NNC(=O)c1ccncc1 [ISONIAZID] | 1.82 µM
